Here are results for eight compounds from patent US10662171B2, “Antidiabetic bicyclic compounds” (Merck Sharp & Dohme Corp., priority 2014, dated 2020).

For orientation: EC50 means the concentration that produces a half-maximal response. Read a high EC50 as lower potency in that assay.

The experiment deals with T1, human GPR40 (Homo sapiens, UniProt O14842).
T1 construct: expressed in transfected cells; host or cells: HEK cells stably expressing the aequorin reporter
T1 sequence (O14842 whole entry): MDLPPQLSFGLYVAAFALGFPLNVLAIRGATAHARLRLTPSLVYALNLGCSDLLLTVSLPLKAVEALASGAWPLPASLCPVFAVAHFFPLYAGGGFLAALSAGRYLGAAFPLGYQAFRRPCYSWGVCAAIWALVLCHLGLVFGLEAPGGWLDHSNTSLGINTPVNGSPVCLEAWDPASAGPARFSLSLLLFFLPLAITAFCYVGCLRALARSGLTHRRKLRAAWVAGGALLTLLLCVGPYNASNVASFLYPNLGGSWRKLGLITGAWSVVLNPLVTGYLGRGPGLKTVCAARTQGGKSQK
The experiment is described as follows: Inositol Phosphate Turnover (IP1) Assay 2. It is filed as cell-based. Particulars: HEK cells stably expressing human GPR40; compound acoustically transferred; 60 minutes at 37 degrees. On the procedure:
Human and mouse GPR40 stable cell-lines were generated in CHO cells stably expressing NFAT BLA (Beta-lactamase). A human GPR40 stable cell-line was generated in HEK cells stably expressing the aequorin expressing reporter. The expression plasmids were transfected using lipofectamine (Life Technologies) following manufacturer's instructions. Stable cell-lines were generated following drug selection.
The assay is performed in 384-well format. HEK cells stably expressing human GPR40 are plated at 15,000 cells per well in growth medium (DMEM/10% fetal calf serum). Cell plates are then incubated 16 hours at 37 degrees in a 5% CO2 incubator.
Measurement of Inositol Phosphate Turnover (IP1) is performed using the CisBio IP-One kit (Part number 62IPAPEB). After the 16 hour incubation, the cells are washed with HEPES buffer and 10 ul of stimulation buffer (prepared as described in the kit) is added to each well. In a separate plate, compounds are diluted in DMSO (400-fold over the final concentration in the assay well) and 25 nl is acoustically transferred to the appropriate well in the assay cell plate. The plates were then incubated for 60 minutes at 37 degrees. 10 ul of detection buffer (also prepared as described in the IP-One kit) is added to each well and the plates are incubated for 60 minutes in the dark. The plates are then read in a Perkin Elmer EnVision or equivalent reader able to measure FRET. Fluorescent ratio of emission at 665 and 620 nm is then converted to IP1 concentration by back calculating from an IP1 standard curve prepared at the time of the assay.
`COc1cc(-c2ccc(C3CCc4ccc(C(C5CC5)C(C)C(=O)O)cc4C3)c(F)c2)ccn1` (single isomer, unassigned) [Example 33, 3-cyclopropyl-3-(7-(2-fluoro-4-(2-methoxypyridin-4-yl)phenyl)-5,6,7,8-tetrahydronaphthalen-2-yl)-2-methylpropanoic acid] displayed an EC50 of 1.4 nM. The value for `COc1cc(-c2ccc(C3=Cc4cc([C@@H](C5CC5)[C@@H](C)C(=O)O)ccc4CC3)c(F)c2)ccn1` (single isomer, unassigned) [Example 30] was 3.8 nM; that for `COc1cc(-c2ccc(C3CCc4ccc(C(C5CC5)C(C)C(=O)O)cc4C3)c(F)c2)ccn1` (single isomer, unassigned) [Example 37] was 0.42 nM; that for `COc1ccc(F)c(-c2ccc([C@@H]3Cc4cc([C@H](C5CC5)[C@H](C)C(=O)O)ccc4CO3)cc2)c1` [Example 21, (2S,3R)-3-cyclopropyl-3-((S)-3-(2′-fluoro-5′-methoxy-[1,1′-biphenyl]-4-yl)isochroman-6-yl)-2-methylpropanoic acid] was 0.21 nM. The value for `COc1cc(-c2ccc(C3CCc4ccc(C(C5CC5)C(C)C(=O)O)cc4C3)c(F)c2)ccn1` (single isomer, unassigned) [Example 36] was 4.8 nM; that for `COc1cc(-c2ccc(C3Cc4cc([C@H](C5CC5)[C@H](C)C(=O)O)ccc4CO3)cc2)c(F)cn1` (single isomer, unassigned) [Example 39B] was 5.2 nM. For the compound `COc1cc(-c2ccc(C3=Cc4cc([C@H](C5CC5)[C@H](C)C(=O)O)ccc4CC3)c(F)c2)ccn1` (single isomer, unassigned) [Example 31], the response was half-maximal at 0.5 nM (EC50).

In the case of `COc1cc(-c2ccc(C3=Cc4cc([C@H](C5CC5)[C@@H](C)C(=O)O)ccc4CC3)c(F)c2)ccn1` (single isomer, unassigned) [Example 32], the response was half-maximal at 28 nM (EC50).
